Laboratory results reported in paper PMC3815946 (Microbial biotechnology, 2009).
Where two headings read alike, the source gives them in different places.

Tests used:
3A6 [1] = assay: steady-state hydrolysis kinetics, Hanes-Woolf plot; assay type: biochemical; conditions: read-out: 3A6 / Km; 100 mM Tris-sulfate, pH 8.5, 40 °C, enzyme 0-12 nM
3A6 [2] = assay: steady-state hydrolysis kinetics, Hanes-Woolf plot; assay type: biochemical; conditions: read-out: 3A6I / Km; 100 mM Tris-sulfate, pH 8.5, 40 °C, enzyme 0-12 nM

| Km (3A6 [1]) | Km (3A6 [2]) | Compound |
| --- | --- | --- |
| 1960 ± 370 µM | – | COc1cc(/C=C/C(=O)OC[C@@H]2O[C@@H](O[C@@H]3[C@@H](O)[C@H](O[C@@H]4COC(O)[C@H](O)[C@H]4O)OC[C@H]3O)[C@H](O)[C@H]2O)ccc1O (stereo partly drawn) [FAXX, (5‐O‐(trans‐feruloyl)‐α‐L‐arabinofuranosyl)‐(1,3)‐β‐D‐xylopyranosyl‐(1,4)‐D‐xylopyranose] |
| 2340 ± 370 µM | – | COC(=O)/C=C/c1ccc(O)c(OC)c1 [Methyl ferulate] |
| 1550 ± 110 µM | – | COC(=O)/C=C/c1ccc(O)cc1 [Methyl p-coumarate] |
| 970 ± 30 µM | – | COc1cc(/C=C/C(=O)OC[C@@H]2O[C@@H](Oc3ccc([N+](=O)[O-])cc3)[C@H](O)[C@H]2O)ccc1O [Nph-5-Fe-Araf, p‐nitrophenyl 5‐O‐trans‐feruloyl‐α‐L‐arabinofuranoside] |
| 180 ± 90 µM | 3480 ± 210 µM | CC(=O)Oc1ccc([N+](=O)[O-])cc1 [p-Nitrophenyl acetate] |
| 240 ± 20 µM | 890 ± 70 µM | CCCC(=O)Oc1ccc([N+](=O)[O-])cc1 [p-Nitrophenyl butyrate] |
| 1530 ± 90 µM | – | CCCCCC(=O)Oc1ccc([N+](=O)[O-])cc1 [p-Nitrophenyl hexanoate] |
| 150 ± 90 µM | – | CCC(=O)Oc1ccc([N+](=O)[O-])cc1 [p-Nitrophenyl propionate] |

| Compound | Km (3A6 [1]) | Km (3A6 [2]) |
| --- | --- | --- |
| COC(=O)/C=C/c1cc(OC)c(O)c(OC)c1 [Methyl sinapinate] | 400 ± 80 µM | – |
